Legend:
Johnson grass (JG) [1] = test: Pre-emergence herbicide test; format: in vivo, Sorgum helepense; conditions: Sorghum halepense, 336 h, two weeks after treatment; for pest or weed control at 2241.7 g/ha: 2 lb/acre; for pest or weed control at 4483.4 g/ha: 4 lb/acre
Procedure: (§1) Johnson grass (JG)--Sorgum helepense
(§2) All crop and weed species were planted individually in 3' plastic pots containing potting soil. Four seeds each of corn, cotton, and snapbeans were seeded to a depth equal to the diameter of the seed. All other species were surface seeded and sprinkled with screened soil in an amount sufficient to cover the seed. Immediately after planting, all pots were watered by sub-irrigation in greenhouse trays. Pots for the pre-emergence phase were seeded one day before treatment.
(§3) Compounds were tested at rates of application equivalent to 8 lbs. of actual compound per acre in a spray volume of 38 gallons per acre. Spray hood constants required to deliver the above volume are as follows:
(§4) Formulations for spray applications were prepared in 50 ml volumes with the following three components:
(§5) Formulations for the 4 lbs/acre rate were prepared by adjusting the amount of active ingredient accordingly.
(§6) Spray applications were made in a hood containing a removable belt and fixed spray nozzle. For passage through the spray hood, one pot of each specie (pre-emergence phase) was placed on the rear half of the flat. Treatments were removed to the greenhouse after spraying. Watering during the observation period was done only by sub-irrigation.
(§7) Two weeks after treatment, pre- and post-emergence injury or control was visually rated, and the results were as shown in the following tables. Pre-emergence data are provided in TABLE III and post-emergence data are provided in TABLE IV, for compounds having the formula illustrated in TABLE I. Correspondingly, pre-emergence and post-emergence data, respectively, are set forth in TABLES V AND VI, for compounds having the formula illustrated in TABLE II.

Bean (BN) [2] = test: Pre-emergence herbicide test; format: in vivo, Phaseolus vulgaris var. Black Valentine; conditions: Phaseolus vulgaris, 336 h, two weeks after treatment; for pest or weed control at 2241.7 g/ha: 2 lb/acre; for pest or weed control at 4483.4 g/ha: 4 lb/acre
Procedure: (§8) Bean (BN)--Phaseolus vulgaris var. Black Valentine
as §2, §3, §4, §5, §6, §7

Barnyard grass (BG) [3] = test: Pre-emergence herbicide test; format: in vivo; conditions: Echinochloa crus-galli, 336 h, two weeks after treatment; for pest or weed control at 2241.7 g/ha: 2 lb/acre; for pest or weed control at 4483.4 g/ha: 4 lb/acre
Procedure: (§9) Barnyard grass (BG)--Echinochloa crus-galli
as §2, §3, §4, §5, §6, §7

Johnson grass (JG) [4] = test: Post-emergence herbicide test; format: in vivo, Sorgum helepense; conditions: Sorghum halepense, 336 h, two weeks after treatment; for pest or weed control: 2 lb/acre; for pest or weed control at 4483.4 g/ha: 4 lb/acre
Procedure: as §1, §2
(§10) Planting dates for the post-emergence phase were varied so that all seedlings would reach the desired stage of development simultaneously. The proper stage of seedling development for treatment in the post-emergence phase is as follows:
as §3, §4, §5, §6, §7

Crabgrass (CG) [5] = test: Post-emergence herbicide test; format: in vivo, Digitaria sanquinalis; conditions: Digitaria sanguinalis, post-emergence, 336 h, two weeks after treatment; for pest or weed control: 2 lb/acre; for pest or weed control at 4483.4 g/ha: 4 lb/acre
Procedure: (§11) Crabgrass (CG)--Digitaria sanquinalis
as §2, §10
(§12) Spray hood constants required to deliver the above volume are as follows:
(§13) Formulations for spray applications were prepared in 50 ml volumes with the following three components: […]
as §6, §7

Corn (CN) [6] = test: Pre-emergence herbicide test; format: in vivo; conditions: Zea mays, 336 h, two weeks after treatment; for pest or weed control at 2241.7 g/ha: 2 lb/acre; for pest or weed control at 4483.4 g/ha: 4 lb/acre
Procedure: as §2, §3, §4, §5, §6, §7

Corn (CN) [7] = test: Post-emergence herbicide test; format: in vivo; conditions: Zea mays, 336 h, two weeks after treatment; for pest or weed control: 2 lb/acre; for pest or weed control at 4483.4 g/ha: 4 lb/acre
Procedure: as §2, §10, §3, §4, §5, §6, §7

Cotton (CT) [8] = test: Pre-emergence herbicide test; format: in vivo, Gossypium hirsutum var. DPL smooth leaf; conditions: Gossypium hirsutum, 336 h, two weeks after treatment; for pest or weed control at 2241.7 g/ha: 2 lb/acre; for pest or weed control at 4483.4 g/ha: 4 lb/acre
Procedure: (§14) Cotton (CT)--Gossypium hirsutum var. DPL smooth leaf
as §2, §3, §4, §5, §6, §7

Turnip (TP) [9] = test: Post-emergence herbicide test; format: in vivo, Brassica sp.; conditions: Brassica rapa, post-emergence, 336 h, two weeks after treatment; for pest or weed control at 2241.7 g/ha: 2 lb/acre; for pest or weed control at 4483.4 g/ha: 4 lb/acre
Procedure: (§15) Turnip (TP)--Brassica sp.
as §2, §10
Pigweed and turnips: 1 or 2 true leaves above visible cotyledons.
as §12, §13, §6, §7

Turnip (TP) [10] = test: Pre-emergence herbicide test; format: in vivo, Brassica sp.; conditions: Brassica rapa, pre-emergence, 336 h, two weeks after treatment; for pest or weed control at 2241.7 g/ha: 2 lb/acre; for pest or weed control at 4483.4 g/ha: 4 lb/acre
Procedure: as §15, §2, §12, §13, §6, §7

Bean (BN) [11] = test: Post-emergence herbicide test; format: in vivo, Phaseolus vulgaris var. Black Valentine; conditions: Phaseolus vulgaris, post-emergence, 336 h, two weeks after treatment; for pest or weed control at 2241.7 g/ha: 2 lb/acre; for pest or weed control at 4483.4 g/ha: 4 lb/acre
Procedure: as §8, §2, §10
Beans: primary leaves expanded, growing point at primary leaf nodes.
as §12, §4, §5, §6, §7

Barnyard grass (BG) [12] = test: Post-emergence herbicide test; format: in vivo; conditions: Echinochloa crus-galli, 336 h, two weeks after treatment; for pest or weed control at 2241.7 g/ha: 2 lb/acre; for pest or weed control at 4483.4 g/ha: 4 lb/acre
Procedure: as §9, §2, §10, §3, §4, §5, §6, §7

Crabgrass (CG) [13] = test: Pre-emergence herbicide test; format: in vivo, Digitaria sanquinalis; conditions: Digitaria sanguinalis, pre-emergence, 336 h, two weeks after treatment; for pest or weed control: 2 lb/acre; for pest or weed control at 4483.4 g/ha: 4 lb/acre
Procedure: as §11, §2, §12, §13, §6, §7

Cotton (CT) [14] = test: Post-emergence herbicide test; format: in vivo, Gossypium hirsutum var. DPL smooth leaf; conditions: Gossypium hirsutum, post-emergence, 336 h, two weeks after treatment; for pest or weed control at 2241.7 g/ha: 2 lb/acre; for pest or weed control at 4483.4 g/ha: 4 lb/acre
Procedure: as §14, §2, §10
Cotton: first true leaf 1' in length; expanded cotyledons.
as §12, §4, §5, §6, §7

C=CCSc1nnc(NC(=O)NC)s1 [Example 39, 1-Methyl-3-[5-Allythio-2-(1,3,4-Thiadiazolyl)] Urea]
pest or weed control at 2241.7 g/ha (Johnson grass (JG) [1]): 30% | pest or weed control at 2241.7 g/ha (Bean (BN) [2]): 40% | pest or weed control at 2241.7 g/ha (Barnyard grass (BG) [3]): 50% | pest or weed control (Johnson grass (JG) [4]): 80% | pest or weed control (Crabgrass (CG) [5]): 80% | pest or weed control at 2241.7 g/ha (Corn (CN) [6]): 10% | pest or weed control (Corn (CN) [7]): 50% | pest or weed control at 2241.7 g/ha (Cotton (CT) [8]): 50% | pest or weed control at 2241.7 g/ha (Turnip (TP) [9]): 80% | pest or weed control at 2241.7 g/ha (Turnip (TP) [10]): 70% | pest or weed control at 2241.7 g/ha (Bean (BN) [11]): 100% | pest or weed control at 2241.7 g/ha (Barnyard grass (BG) [12]): 90% | pest or weed control (Crabgrass (CG) [13]): 60% | pest or weed control at 2241.7 g/ha (Cotton (CT) [14]): 100%

CNC(=O)Nc1nnc(SC(C)C)s1 [Example 40, 1-Methyl-3-[5-Isopropylthio-2-(1,3,4-Thiadiazolyl)]Urea]
pest or weed control at 4483.4 g/ha (Johnson grass (JG) [1]): 30% | pest or weed control at 4483.4 g/ha (Bean (BN) [2]): 10% | pest or weed control at 4483.4 g/ha (Barnyard grass (BG) [3]): 40% | pest or weed control at 4483.4 g/ha (Johnson grass (JG) [4]): 70% | pest or weed control at 4483.4 g/ha (Crabgrass (CG) [5]): 90% | pest or weed control at 4483.4 g/ha (Corn (CN) [7]): 40% | pest or weed control at 4483.4 g/ha (Cotton (CT) [8]): 30% | pest or weed control at 4483.4 g/ha (Turnip (TP) [9]): 100% | pest or weed control at 4483.4 g/ha (Turnip (TP) [10]): 100% | pest or weed control at 4483.4 g/ha (Bean (BN) [11]): 100% | pest or weed control at 4483.4 g/ha (Barnyard grass (BG) [12]): 50% | pest or weed control at 4483.4 g/ha (Crabgrass (CG) [13]): 50% | pest or weed control at 4483.4 g/ha (Cotton (CT) [14]): 100%

CCCSc1nnc(NC(=O)NC)s1 [Example 41, 1-Methyl-3-[5-n-Propylthio-2-(1,3,4-Thiadiazolyl)]Urea]
pest or weed control at 2241.7 g/ha (Johnson grass (JG) [1]): 70% | pest or weed control at 2241.7 g/ha (Bean (BN) [2]): 30% | pest or weed control at 2241.7 g/ha (Barnyard grass (BG) [3]): 50% | pest or weed control (Johnson grass (JG) [4]): 90% | pest or weed control (Crabgrass (CG) [5]): 100% | pest or weed control at 2241.7 g/ha (Corn (CN) [6]): 10% | pest or weed control (Corn (CN) [7]): 100% | pest or weed control at 2241.7 g/ha (Cotton (CT) [8]): 50% | pest or weed control at 2241.7 g/ha (Turnip (TP) [9]): 70% | pest or weed control at 2241.7 g/ha (Turnip (TP) [10]): 60% | pest or weed control at 2241.7 g/ha (Bean (BN) [11]): 70% | pest or weed control at 2241.7 g/ha (Barnyard grass (BG) [12]): 90% | pest or weed control (Crabgrass (CG) [13]): 90% | pest or weed control at 2241.7 g/ha (Cotton (CT) [14]): 100%

CCCS(=O)(=O)c1nnc(NC(=O)NC)s1 [Example 62]
pest or weed control at 2241.7 g/ha (Johnson grass (JG) [1]): 40% | pest or weed control at 4483.4 g/ha (Johnson grass (JG) [1]): 40% | pest or weed control at 2241.7 g/ha (Bean (BN) [2]): 60% | pest or weed control at 4483.4 g/ha (Bean (BN) [2]): 50% | pest or weed control at 2241.7 g/ha (Barnyard grass (BG) [3]): 60% | pest or weed control at 4483.4 g/ha (Barnyard grass (BG) [3]): 60% | pest or weed control at 4483.4 g/ha (Johnson grass (JG) [4]): 100% | pest or weed control (Crabgrass (CG) [5]): 100% | pest or weed control at 4483.4 g/ha (Crabgrass (CG) [5]): 100% | pest or weed control at 2241.7 g/ha (Corn (CN) [6]): 0% | pest or weed control at 4483.4 g/ha (Corn (CN) [6]): 0% | pest or weed control (Corn (CN) [7]): 100% | pest or weed control at 4483.4 g/ha (Corn (CN) [7]): 50% | pest or weed control at 2241.7 g/ha (Cotton (CT) [8]): 100% | pest or weed control at 4483.4 g/ha (Cotton (CT) [8]): 100% | pest or weed control at 2241.7 g/ha (Turnip (TP) [9]): 100% | pest or weed control at 4483.4 g/ha (Turnip (TP) [9]): 100% | pest or weed control at 2241.7 g/ha (Turnip (TP) [10]): 80% | pest or weed control at 4483.4 g/ha (Turnip (TP) [10]): 40% | pest or weed control at 2241.7 g/ha (Bean (BN) [11]): 100% | pest or weed control at 4483.4 g/ha (Bean (BN) [11]): 100% | pest or weed control at 4483.4 g/ha (Barnyard grass (BG) [12]): 80% | pest or weed control (Crabgrass (CG) [13]): 90% | pest or weed control at 4483.4 g/ha (Crabgrass (CG) [13]): 90% | pest or weed control at 2241.7 g/ha (Cotton (CT) [14]): 90% | pest or weed control at 4483.4 g/ha (Cotton (CT) [14]): 100%

CNC(=O)Nc1nnc(-c2cccc(C(F)(F)F)c2)s1 [Example 73]
pest or weed control at 4483.4 g/ha (Johnson grass (JG) [1]): 0% | pest or weed control at 4483.4 g/ha (Bean (BN) [2]): 80% | pest or weed control at 4483.4 g/ha (Barnyard grass (BG) [3]): 0% | pest or weed control at 4483.4 g/ha (Johnson grass (JG) [4]): 50% | pest or weed control at 4483.4 g/ha (Crabgrass (CG) [5]): 30% | pest or weed control at 4483.4 g/ha (Corn (CN) [6]): 50% | pest or weed control at 4483.4 g/ha (Corn (CN) [7]): 30% | pest or weed control at 4483.4 g/ha (Cotton (CT) [8]): 100% | pest or weed control at 4483.4 g/ha (Turnip (TP) [9]): 60% | pest or weed control at 4483.4 g/ha (Turnip (TP) [10]): 60% | pest or weed control at 4483.4 g/ha (Bean (BN) [11]): 40% | pest or weed control at 4483.4 g/ha (Barnyard grass (BG) [12]): 40% | pest or weed control at 4483.4 g/ha (Crabgrass (CG) [13]): 0% | pest or weed control at 4483.4 g/ha (Cotton (CT) [14]): 50%

Source: patent US4175081A, “5-Substituted thiadiazole ureas” (priority 1977, dated 1979)
